{
  "source": "patent US9375404B2",
  "about": "(Duchesnay Inc., priority 2012, dated 2016)",
  "assay": "clinical",
  "conditions": "human, in vivo",
  "description": "Data are from bioavailability studies in healthy volunteers. 5 mg: 12 healthy men, 20 mg: 42 healthy women, 25 mg: 12 healthy women, 40 mg: 18 healthy women;",
  "data": [
    {"smiles": "CN(C)CCOC(C)(c1ccccc1)c1ccccn1", "note": "(centres unmarked) [doxylamine, reference compound]", "values": [
      {"measurement": "half-life", "setting": "half-life", "value": "~720", "unit": "min"}
    ]},
    {"smiles": "Cc1ncc(CO)c(CO)c1O", "note": "[pyridoxine, reference compound]", "values": [
      {"measurement": "amount unchanged in blood", "value": "about 1%"},
      {"measurement": "availability with increasing dose", "value": "availability is not increased"},
      {"measurement": "dose vs. Cmax relationship (linearity of pharmacokinetics)", "value": "Cmax increases less than expected"},
      {"measurement": "inter subject and inter study variations", "value": "significantly higher"},
      {"measurement": "metabolism", "value": "rapidly metabolized"}
    ]},
    {"smiles": "Cc1ncc(CO)c(C=O)c1O", "note": "[pyridoxal]", "values": [
      {"measurement": "bioavailability at steady-state", "value": "significant bioavailability increases"},
      {"measurement": "change in Cmax and AUC", "value": "significant increase"},
      {"measurement": "change in T1/2", "value": "significant lengthening"},
      {"measurement": "dose vs. Cmax relationship (linearity of pharmacokinetics)", "value": "increase more than expected"}
    ]},
    {"smiles": "Cc1ncc(COP(=O)(O)O)c(C=O)c1O", "note": "[PLP, pyridoxal 5-phosphate]", "values": [
      {"measurement": "availability among pyridoxine metabolites", "value": "most available active metabolite"},
      {"measurement": "dose vs. Cmax relationship (linearity of pharmacokinetics)", "value": "increase more than expected"},
      {"measurement": "half-life", "value": 3600, "unit": "min"},
      {"measurement": "persistence in the systemic circulation", "value": "remaining in the systemic circulation the longest"}
    ]}
  ]
}
